In the supplement of paper PMC8882468:

Legend:
Assay in all cases: CTG-3D luminescence at 96 h relative to day-0 seeding control (ratio to day 0); higher = more growth / less cytotoxicity; PDxO 3D drug screen, 96 h, CTG-3D normalised to day-0 seeding control.
HCI-008 = system: HCI-008 (organoid from a HER2-enriched breast cancer xenograft)
HCI-015 = system: HCI-015 (organoid from a triple-negative breast cancer xenograft)
HCI-005.E2 = system: HCI-005.E2 (organoid from a breast cancer xenograft with a HER2-positive history)
HCI-016 = system: HCI-016 (organoid from a triple-negative breast cancer xenograft)
HCI-001 = system: HCI-001 (organoid from a triple-negative breast cancer xenograft)

NC(=O)c1cccc2cn(-c3ccc([C@@H]4CCCNC4)cc3)nc12 [niraparib]
CTG-3D luminescence at 96 h
Conditions | 12.5 pM | 0.00025 µM | 0.005 µM | 0.1 µM | 1 µM | 10 µM | 100 µM | 625 fM
HCI-001, days in culture: 240 | 1.8 | 0.913 | 0.843 | 1.05 | 1.61 | 1.03 | -0.07 | 1.32
HCI-001, days in culture: 260 | 2.65 | 1.11 | 2.11 | 1.64 | 1.53 | 1.92 | -0.0335 | 1.4
HCI-001, days in culture: 269 | 1.85 | 1.93 | 1.42 | 1.32 | 1.1 | 1.23 | -0.00141 | 1.67
HCI-001, days in culture: 327 | 1.97 | 1.95 | 2.3 | 1.8 | 1.66 | 1.28 | -0.186 | 2.27
HCI-001, days in culture: 346 | 1.69 | 1.24 | 1.24 | 1.4 | 1.51 | 1.1 | -0.143 | 1.28
HCI-001, days in culture: 364 | 1.81 | 1.28 | 1.69 | 1.33 | 1.33 | 1.2 | -0.0638 | 1.67
HCI-008, days in culture: 228 | 1.87 | 1.97 | 1.45 | 1.55 | 1.34 | 0.828 | 0.00065 | 1.72
HCI-008, days in culture: 244 | 1.42 | 1.98 | 1.91 | 2.31 | 1.77 | 1.17 | -0.000168 | 2.42
HCI-015, days in culture: 172 | 2.77 | 1.86 | 2.64 | 1.3 | 0.847 | 0.199 | -0.107 | 2.29
HCI-015, days in culture: 191 | 2.28 | 1.35 | 1.72 | 1.06 | 1.12 | 0.29 | -0.000426 | 1.59
HCI-015, days in culture: 218 | 2.06 | 1.35 | 1.71 | 1.25 | 0.615 | -0.0786 | -0.35 | 1.94
HCI-016, days in culture: 153 | 2.7 | 1.98 | 2.84 | 1.82 | 0.989 | 0.444 | -0.00489 | 2.67
HCI-016, days in culture: 172 | 2.42 | 2.33 | 2.02 | 1.56 | 1.36 | 0.272 | -0.00828 | 1.66
HCI-016, days in culture: 190 | 1.64 | 1.64 | 2.08 | 1.58 | 0.974 | 0.189 | -0.105 | 1.59
HCI-016, days in culture: 199 | 2.02 | 2.05 | 1.96 | 1.54 | 0.655 | 0.118 | -0.0141 | 2.02

HCI-005.E2
Conditions | CTG-3D luminescence at 96 h
12.5 pM | 1.22
0.00025 µM | 1.61
0.005 µM | 1.3
0.1 µM | 1.62
1 µM | 1.51
10 µM | 1.05
100 µM | -0.00126
625 fM | 1.35

CC1(C)CCC(c2ccc(Cl)cc2)=C(CN2CCN(c3ccc(C(=O)NS(=O)(=O)c4ccc(N[C@H](CCN5CCOCC5)CSc5ccccc5)c(S(=O)(=O)C(F)(F)F)c4)cc3)CC2)C1 [navitoclax]
CTG-3D luminescence at 96 h
Conditions | 12.5 pM | 0.00025 µM | 0.005 µM | 0.1 µM | 1 µM | 10 µM | 100 µM | 625 fM
HCI-001, days in culture: 240 | 1.51 | 1.07 | 0.955 | 1.53 | 1.1 | 0.369 | 0.0412 | 1.73
HCI-001, days in culture: 260 | 2.66 | 1.09 | 1.83 | 1.92 | 1.58 | 0.642 | 0.0822 | 1.64
HCI-001, days in culture: 269 | 1.8 | 1.73 | 1.37 | 1.38 | 0.942 | 0.889 | 0.124 | 1.67
HCI-001, days in culture: 327 | 2.11 | 1.59 | 2.17 | 1.48 | 0.963 | 0.0556 | -0.168 | 2.04
HCI-001, days in culture: 346 | 1.64 | 1.22 | 1.38 | 1.24 | 1.3 | 0.577 | 0.00509 | 1.3
HCI-001, days in culture: 364 | 1.67 | 1.16 | 1.61 | 1.17 | 1.17 | 0.802 | 0.00601 | 1.63
HCI-008, days in culture: 228 | 1.53 | 1.62 | 1.55 | 1.61 | 1.2 | 0.854 | 0.0594 | 1.77
HCI-008, days in culture: 244 | 1.31 | 1.99 | 1.94 | 2.06 | 1.57 | 0.824 | 0.0293 | 2.52
HCI-015, days in culture: 172 | 2.17 | 2.01 | 2.2 | 1.82 | 1.99 | 1.61 | 0.429 | 2.6
HCI-015, days in culture: 191 | 2.56 | 1.7 | 2 | 1.59 | 1.87 | 1.01 | 0.399 | 1.61
HCI-015, days in culture: 218 | 1.72 | 1.53 | 1.74 | 1.59 | 1.64 | 1.63 | -0.117 | 1.97
HCI-016, days in culture: 153 | 3.08 | 1.54 | 2.11 | 1.77 | 1.76 | 0.105 | 0.000169 | 3.01
HCI-016, days in culture: 172 | 2.29 | 2.07 | 1.85 | 1.43 | 1.55 | 0.931 | 0.00877 | 1.68
HCI-016, days in culture: 190 | 2.07 | 1.62 | 1.9 | 1.65 | 1.46 | 1.1 | 0.0887 | 1.24
HCI-016, days in culture: 199 | 2.03 | 2.16 | 2.22 | 1.82 | 2.1 | 0.827 | 0.0061 | 1.99

HCI-005.E2
Conditions | CTG-3D luminescence at 96 h
12.5 pM | 1.5
0.00025 µM | 1.46
0.005 µM | 1.66
0.1 µM | 1.7
1 µM | 1.24
10 µM | 1.21
100 µM | 0.0085
625 fM | 1.6

C[C@@H]1COCCN1c1cc(C2([S@](C)(=N)=O)CC2)nc(-c2cc[nH]c3nccc2-3)n1 [ceralasertib]
CTG-3D luminescence at 96 h
Conditions | 12.5 pM | 0.00025 µM | 0.005 µM | 0.1 µM | 1 µM | 10 µM | 100 µM | 625 fM
HCI-001, days in culture: 240 | 1.54 | 0.962 | 0.905 | 0.752 | 1.11 | 0.512 | 0.536 | 1.21
HCI-001, days in culture: 260 | 1.68 | 0.899 | 1.81 | 1.66 | 1.19 | 0.492 | 0.35 | 1.32
HCI-001, days in culture: 269 | 1.61 | 1.65 | 1.82 | 1.79 | 1.06 | 0.544 | 0.577 | 1.54
HCI-001, days in culture: 327 | 1.41 | 1.4 | 1.77 | 1.47 | 1.36 | 0.335 | 0.479 | 1.44
HCI-001, days in culture: 346 | 1.56 | 1.49 | 1.38 | 1.3 | 1.02 | 0.456 | 0.658 | 1.26
HCI-001, days in culture: 364 | 1.44 | 1.19 | 1.23 | 1.16 | 0.732 | 0.301 | 0.319 | 1.52
HCI-008, days in culture: 228 | 1.99 | 1.95 | 1.41 | 1.81 | 1.36 | 0.531 | 0.212 | 1.72
HCI-008, days in culture: 244 | 1.32 | 2.13 | 2.05 | 2.01 | 1.26 | 0.71 | 0.334 | 2.35
HCI-015, days in culture: 172 | 2.39 | 2.46 | 2.2 | 1.24 | 2.01 | 0.531 | 0.385 | 2.27
HCI-015, days in culture: 191 | 1.99 | 1.33 | 1.19 | 1.08 | 1.25 | 0.413 | 0.258 | 1.52
HCI-015, days in culture: 218 | 1.79 | 1.5 | 1.72 | 1.55 | 1.2 | 0.408 | 0.265 | 1.58
HCI-016, days in culture: 153 | 3.13 | 2.07 | 1.95 | 2.28 | 1.72 | 0.113 | 0.0761 | 2.11
HCI-016, days in culture: 172 | 2.3 | 1.91 | 1.66 | 1.88 | 1.12 | 0.141 | 0.0786 | 1.92
HCI-016, days in culture: 190 | 1.54 | 1.14 | 1.72 | 1.27 | 1.11 | 0.1 | 0.0608 | 1.28
HCI-016, days in culture: 199 | 1.42 | 1.55 | 1.36 | 1.25 | 0.986 | 0.0835 | 0.0684 | 1.6

HCI-005.E2
Conditions | CTG-3D luminescence at 96 h
12.5 pM | 1.83
0.00025 µM | 1.7
0.005 µM | 1.86
0.1 µM | 1.9
1 µM | 1.16
10 µM | 0.849
100 µM | 0.6
625 fM | 1.78
